Measurements published in the supplement of paper PMC10307832.

Key:
Assay in all cases: relative viability (nuclei count vs DMSO), 5 days (fraction); higher = more cells survive
[1] = compound: CN1CCN(CC1)C2=CC(=C(C=C2)NC3=NC(=C(S3)C(=O)C4=C(C=CC=C4Cl)Cl)N)OC [XMD14-99] + CS(=O)(=O)N1CCN(Cc2cc3nc(-c4cccc5[nH]ncc45)nc(N4CCOCC4)c3s2)CC1 [Pictilisib] (partner 1 µM)
Method in brief: (§1)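 Lung cancer cell lines were pin-tool dosed in 1536-well plates on the day after seeding, with either a lone drug or a fixed anchor-drug dose plus five library-drug doses (not always all listed) in √10 steps. Nuclei were counted on 4× images after 5 days. Relative viability is the ratio of treated-well to vehicle-well nuclei counts, with each value a median of duplicate plates.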

[2] = compound: CN1CCN(CC1)C2=CC(=C(C=C2)NC3=NC(=C(S3)C(=O)C4=C(C=CC=C4Cl)Cl)N)OC [XMD14-99] + Cc1cc(Nc2cc(N3CCN(C)CC3)nc(Sc3ccc(NC(=O)C4CC4)cc3)n2)n[nH]1 [Tozasertib] (partner 0.1 µM)
Method in brief: as §1

[3] = compound: CN1CCN(CC1)C2=CC(=C(C=C2)NC3=NC(=C(S3)C(=O)C4=C(C=CC=C4Cl)Cl)N)OC [XMD14-99] + C[C@]1(O)C[C@@H](c2nc(-c3ccc4ccc(-c5ccccc5)nc4c3)c3c(N)nccn32)C1 [Linsitinib] (partner 1 µM)
Method in brief: as §1

[4] = compound: CN1CCN(CC1)C2=CC(=C(C=C2)NC3=NC(=C(S3)C(=O)C4=C(C=CC=C4Cl)Cl)N)OC [XMD14-99] + COc1cccc2cc(-c3nc([C@H]4CC[C@H](C(=O)O)CC4)n4ncnc(N)c34)[nH]c12 [OSI-027] (partner 0.5 µM)
Method in brief: as §1

[5] = compound: CN1CCN(CC1)C2=CC(=C(C=C2)NC3=NC(=C(S3)C(=O)C4=C(C=CC=C4Cl)Cl)N)OC [XMD14-99] + C[C@@H](Oc1cc(-c2cnn(C3CCNCC3)c2)cnc1N)c1c(Cl)ccc(F)c1Cl [Crizotinib] (partner 1 µM)
Method in brief: as §1

| Cell Line | relative viability ([1]; first compound 0.08 µM) | relative viability ([1]; first compound 0.8 µM) | relative viability ([1]; first compound 2.53 µM) | relative viability ([1]; first compound 8 µM) | relative viability ([2]; first compound 0.08 µM) | relative viability ([2]; first compound 0.8 µM) | relative viability ([2]; first compound 2.53 µM) | relative viability ([2]; first compound 8 µM) | relative viability ([3]; first compound 0.08 µM) | relative viability ([3]; first compound 0.8 µM) | relative viability ([3]; first compound 2.53 µM) | relative viability ([3]; first compound 8 µM) | relative viability ([4]; first compound 0.08 µM) | relative viability ([4]; first compound 0.8 µM) | relative viability ([4]; first compound 2.53 µM) | relative viability ([4]; first compound 8 µM) | relative viability ([5]; first compound 0.08 µM) | relative viability ([5]; first compound 0.8 µM) | relative viability ([5]; first compound 2.53 µM) | relative viability ([5]; first compound 8 µM) |
| --- | --- | --- | --- | --- | --- | --- | --- | --- | --- | --- | --- | --- | --- | --- | --- | --- | --- | --- | --- | --- |
| 201T | 0.7 | 0.666 | 0.658 | 0.619 | 0.899 | 0.915 | 0.886 | 0.669 | 1.05 | 1.02 | 0.995 | 1 | 0.748 | 0.729 | 0.828 | 0.494 | 1.03 | 1.02 | 1.01 | 0.917 |
| A549 | 0.397 | 0.545 | 0.505 | 0.348 | – | – | – | – | 0.636 | 0.599 | 0.629 | 0.505 | – | – | – | – | 0.593 | 0.728 | 0.705 | 0.452 |
| A-427 | 0.694 | 0.784 | 0.607 | 0.448 | 0.224 | 0.227 | 0.201 | 0.188 | 1.15 | 1.08 | 1.01 | 0.904 | 0.457 | 0.421 | 0.401 | 0.311 | 0.83 | 0.746 | 0.614 | 0.658 |
| ABC-1 | 0.754 | 0.667 | 0.588 | 0.47 | 0.185 | 0.177 | 0.235 | 0.217 | 0.906 | 0.707 | 0.659 | 0.642 | 0.431 | 0.551 | 0.382 | 0.291 | 1 | 1.07 | 1.04 | 0.802 |
| BEN | 0.554 | 0.523 | 0.641 | 0.442 | 0.478 | 0.471 | 0.5 | 0.428 | 0.872 | 0.816 | 0.81 | 0.762 | 0.29 | 0.295 | 0.312 | 0.264 | 0.789 | 0.718 | 0.761 | 0.647 |
| CAL-12T | 0.397 | 0.453 | 0.334 | 0.287 | 0.331 | 0.331 | 0.307 | 0.3 | 0.796 | 0.826 | 0.709 | 0.641 | 0.492 | 0.68 | 0.747 | 0.377 | 0.926 | 0.609 | 0.724 | 0.466 |
| COR-L23 | 0.676 | 0.748 | 0.68 | 0.414 | 0.18 | 0.211 | 0.182 | 0.151 | 0.865 | 0.806 | 0.891 | 0.478 | 0.796 | 0.724 | 0.561 | 0.406 | 0.684 | 0.614 | 0.51 | 0.33 |
| COR-L 105 | 0.363 | 0.374 | 0.34 | 0.357 | 0.295 | 0.426 | 0.33 | 0.328 | 0.924 | 0.665 | 0.879 | 0.703 | 0.701 | 0.646 | 0.647 | 0.409 | 0.709 | 0.88 | 0.721 | 0.444 |
| Calu-6 | 0.881 | 0.824 | 0.785 | 0.57 | – | – | – | – | 0.918 | 0.918 | 0.883 | 0.732 | – | – | – | – | 0.807 | 0.756 | 0.747 | 0.513 |
| ChaGo-K-1 | 0.811 | 0.703 | 0.67 | 0.509 | 0.217 | 0.199 | 0.208 | 0.226 | – | – | – | – | 0.554 | 0.658 | 0.612 | 0.472 | 1.1 | 1.14 | 1.19 | 0.92 |
| EBC-1 | 0.481 | 0.391 | 0.318 | 0.26 | – | – | – | – | 0.885 | 0.77 | 0.762 | 0.702 | – | – | – | – | 0.232 | 0.19 | 0.188 | 0.156 |
| EKVX | 0.422 | 0.488 | 0.487 | 0.35 | 0.368 | 0.378 | 0.392 | 0.343 | 1.01 | 1.05 | 0.993 | 0.81 | 0.653 | 0.72 | 0.655 | 0.586 | 0.976 | 0.808 | 0.898 | 0.741 |
| EMC-BAC-2 | 0.573 | 0.519 | 0.519 | 0.413 | 0.28 | 0.249 | 0.27 | 0.254 | 0.804 | 0.81 | 0.775 | 0.676 | 0.362 | 0.384 | 0.313 | 0.292 | 0.801 | 0.775 | 0.743 | 0.62 |
| EPLC-272H | 0.338 | 0.338 | 0.284 | 0.247 | 0.348 | 0.307 | 0.264 | 0.324 | 1.14 | 1.21 | 1.4 | 1.02 | 0.311 | 0.32 | 0.282 | 0.263 | 0.923 | 0.813 | 1.04 | 0.927 |
| H3255 | 0.451 | 0.39 | 0.403 | 0.302 | 0.721 | 0.606 | 0.563 | 0.454 | 0.999 | 0.871 | 0.765 | 0.694 | 0.548 | 0.57 | 0.535 | 0.487 | 0.831 | 0.64 | 0.757 | 0.597 |
| HARA | 0.35 | 0.382 | 0.222 | 0.298 | 0.122 | 0.0974 | 0.258 | 0.0954 | 0.901 | 0.946 | 0.701 | 0.605 | 0.46 | 0.426 | 0.321 | 0.182 | 0.994 | 0.938 | 0.864 | 0.646 |
